Laboratory results as given in ChEMBL document CHEMBL4007440, “Development of the First Generation of Disulfide-Based Subtype-Selective and Potent Covalent Pyruvate Dehydrogenase Kinase 1 (PDK1) Inhibitors” (J Med Chem, 2017).
Activity calls are given as the source filed them. No cut-off for these calls is given here.

Legend:
[1] = molecular target: T1, [Pyruvate dehydrogenase (acetyl-transferring)] kinase isozyme 1, mitochondrial (Homo sapiens, UniProt Q15118); test: Inhibition of PDK1 in human A549 cells assessed as reduction in phosphorylation of PDHE1 at S232 residue at 1 uM after 24 hrs by chemiluminescence/femtochemiluminescence method; type: cell-based
T1 sequence (Q15118 whole entry): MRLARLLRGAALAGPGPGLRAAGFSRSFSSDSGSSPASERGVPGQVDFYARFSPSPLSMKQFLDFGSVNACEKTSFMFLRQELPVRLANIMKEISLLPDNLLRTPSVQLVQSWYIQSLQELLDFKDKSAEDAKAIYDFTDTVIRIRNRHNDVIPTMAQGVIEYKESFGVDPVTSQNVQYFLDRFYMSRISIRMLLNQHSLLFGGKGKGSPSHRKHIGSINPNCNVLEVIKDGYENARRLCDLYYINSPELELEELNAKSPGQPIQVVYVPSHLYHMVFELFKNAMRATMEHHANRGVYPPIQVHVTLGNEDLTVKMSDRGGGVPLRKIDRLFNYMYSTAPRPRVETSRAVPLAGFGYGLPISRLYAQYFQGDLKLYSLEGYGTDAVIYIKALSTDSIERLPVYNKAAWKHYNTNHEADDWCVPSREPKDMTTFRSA

[2] = molecular target: T1, [Pyruvate dehydrogenase (acetyl-transferring)] kinase isozyme 1, mitochondrial; test: Inhibition of PDK1 in human A549 cells assessed as reduction in phosphorylation of PDHE1 at S293 residue at 10 uM after 24 hrs by chemiluminescence/femtochemiluminescence method; type: cell-based
[3] = molecular target: T1, [Pyruvate dehydrogenase (acetyl-transferring)] kinase isozyme 1, mitochondrial; test: Inhibition of PDK1 in human A549 cells assessed as reduction in phosphorylation of PDHE1 at S293 residue at 1 uM after 24 hrs by chemiluminescence/femtochemiluminescence method; type: cell-based
[4] = molecular target: T1, [Pyruvate dehydrogenase (acetyl-transferring)] kinase isozyme 1, mitochondrial; test: Inhibition of PDK1 in human A549 cells assessed as reduction in phosphorylation of PDHE1 at S232 residue at 10 uM after 24 hrs by chemiluminescence/femtochemiluminescence method; type: cell-based
[5] = molecular target: T1, [Pyruvate dehydrogenase (acetyl-transferring)] kinase isozyme 1, mitochondrial; test: Inhibition of full length His6-tagged PDK1 (unknown origin) expressed in Escherichia coli using full length His6-tagged PDHA1 as substrate after 30 mins by ELISA
[6] = molecular target: T1, [Pyruvate dehydrogenase (acetyl-transferring)] kinase isozyme 1, mitochondrial; test: Inhibition of full length His6-tagged PDK1 (unknown origin) expressed in Escherichia coli up to 10 uM using full length His6-tagged PDHA1 as substrate after 30 mins by ELISA
[7] = molecular target: T1, [Pyruvate dehydrogenase (acetyl-transferring)] kinase isozyme 1, mitochondrial; test: Ratio of Kinact to Ki for full length His6-tagged PDK1 (unknown origin) expressed in Escherichia coli
[8] = molecular target: T1, [Pyruvate dehydrogenase (acetyl-transferring)] kinase isozyme 1, mitochondrial; test: Inhibition of full length His6-tagged PDK1 (unknown origin) expressed in Escherichia coli assessed as inactivation rate using full length His6-tagged PDHA1 as substrate up to 45 mins by ELISA
[9] = molecular target: T1, [Pyruvate dehydrogenase (acetyl-transferring)] kinase isozyme 1, mitochondrial; test: Inhibition of full length His6-tagged PDK1 (unknown origin) expressed in Escherichia coli using full length His6-tagged PDHA1 as substrate in presence of GSH after 30 mins by ELISA
L02 = test: Antiproliferative activity against human LO2 cells after 72 hrs by CCK8 assay; type: cell-based; conditions: L02, 72 h
[10] = molecular target: T1, [Pyruvate dehydrogenase (acetyl-transferring)] kinase isozyme 1, mitochondrial; test: Inhibition of PDK1 in human A549 cells assessed as increase in reactive oxygen species after 24 hrs by dihydroethidium staining based FACS analysis; type: cell-based
A549 [11] = test: Antitumor activity against human A549 cells xenografted in BALB/c nude mouse assessed as tumor growth inhibition at 80 mg/kg, ip for 21 days measured on day 21 post dose relative to control; type: functional; conditions: 504 h, read-out: TGI
[12] = molecular target: [Pyruvate dehydrogenase (acetyl-transferring)] kinase isozyme 2, mitochondrial (Homo sapiens, UniProt Q15119); test: Inhibition of PDK2 (unknown origin) using full length His6-tagged PDHA1 as substrate after 30 mins by ELISA
A549 [13] = test: cells; conditions: Homo sapiens, A549, 72 h
Description: Antiproliferative activity against human A549 cells after 72 hrs by CCK8 assay

[14] = molecular target: T1, [Pyruvate dehydrogenase (acetyl-transferring)] kinase isozyme 1, mitochondrial; test: Inhibition of PDK1 in human A549 cells assessed as reduction in phosphorylation of PDHE1 at S232 residue after 24 hrs by chemiluminescence/femtochemiluminescence method; type: cell-based
[15] = molecular target: T1, [Pyruvate dehydrogenase (acetyl-transferring)] kinase isozyme 1, mitochondrial; test: Inhibition of PDK1 in human A549 cells assessed as reduction in extracellular acidification rate after 24 hrs by fluorescent biosensor based assay; type: cell-based
[16] = molecular target: T1, [Pyruvate dehydrogenase (acetyl-transferring)] kinase isozyme 1, mitochondrial; test: Inhibition of PDK1 in human A549 cells assessed as reduction in phosphorylation of PDHE1 at S293 residue after 24 hrs by chemiluminescence/femtochemiluminescence method; type: cell-based
[17] = Antiproliferative activity against human GM00637 cells after 72 hrs by CCK8 assay; type: cell-based; conditions: GM00637, 72 h
Mus musculus = test: Toxicity in BALB/c nude mouse assessed as body weight loss at 40 to 80 mg/kg, ip for 21 days; type: organism-based; conditions: in vivo, 504 h
A549 [18] = test: Antitumor activity against human A549 cells xenografted in BALB/c nude mouse assessed as reduction in tumor weight at 40 to 80 mg/kg, ip for 21 days measured on day 21 post dose; type: functional, organism-based
[19] = molecular target: [Pyruvate dehydrogenase (acetyl-transferring)] kinase isozyme 3, mitochondrial (Homo sapiens, UniProt Q15120); test: Inhibition of PDK3 (unknown origin) using full length His6-tagged PDHA1 as substrate after 30 mins by ELISA
Chain of [Pyruvate dehydrogenase (acetyl-transferring)] kinase isozyme 3, mitochondrial (Q15120 whole entry): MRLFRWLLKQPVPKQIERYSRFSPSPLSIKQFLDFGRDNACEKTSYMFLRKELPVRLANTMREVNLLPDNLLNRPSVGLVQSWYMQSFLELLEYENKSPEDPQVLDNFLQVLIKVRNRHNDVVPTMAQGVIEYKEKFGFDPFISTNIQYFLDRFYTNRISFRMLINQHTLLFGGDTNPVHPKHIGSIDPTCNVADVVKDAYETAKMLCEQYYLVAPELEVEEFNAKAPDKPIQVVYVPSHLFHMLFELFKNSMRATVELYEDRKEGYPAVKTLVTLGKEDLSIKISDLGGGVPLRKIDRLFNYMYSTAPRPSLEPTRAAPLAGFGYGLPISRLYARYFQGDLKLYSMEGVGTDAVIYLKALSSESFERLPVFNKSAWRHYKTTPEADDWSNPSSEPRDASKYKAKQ

[20] = molecular target: T2, [Pyruvate dehydrogenase (acetyl-transferring)] kinase isozyme 4, mitochondrial (Homo sapiens, UniProt Q16654); test: Inhibition of PDK4 (unknown origin) at 10 uM using full length His6-tagged PDHA1 as substrate after 30 mins by ELISA
Target sequence in this assay (Q16654 whole entry, looked up): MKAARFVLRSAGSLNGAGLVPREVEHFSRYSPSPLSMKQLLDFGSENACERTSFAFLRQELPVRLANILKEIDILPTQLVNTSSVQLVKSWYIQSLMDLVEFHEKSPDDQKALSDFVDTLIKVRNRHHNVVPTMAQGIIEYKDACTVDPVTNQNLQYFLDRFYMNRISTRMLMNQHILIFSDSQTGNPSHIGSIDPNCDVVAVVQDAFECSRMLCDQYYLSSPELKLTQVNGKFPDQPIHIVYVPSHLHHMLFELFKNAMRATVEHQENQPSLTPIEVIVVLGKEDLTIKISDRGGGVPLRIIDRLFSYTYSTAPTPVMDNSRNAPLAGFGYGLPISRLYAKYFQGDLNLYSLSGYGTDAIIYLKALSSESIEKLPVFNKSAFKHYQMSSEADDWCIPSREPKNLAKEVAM

A549 [21] = test: Antitumor activity against human A549 cells xenografted in BALB/c nude mouse assessed as tumor growth inhibition at 40 mg/kg, ip for 21 days measured on day 21 post dose relative to control; type: functional; conditions: 504 h, read-out: TGI
[22] = Antiproliferative activity against human Kelly cells after 72 hrs by CCK8 assay
[23] = molecular target: T2, [Pyruvate dehydrogenase (acetyl-transferring)] kinase isozyme 4, mitochondrial; test: Inhibition of PDK4 (unknown origin) using full length His6-tagged PDHA1 as substrate after 30 mins by ELISA
Target sequence in this assay (Q16654 whole entry): as the sequence (Q16654 whole entry, looked up) above

## C[C@@H]1CN(C(=S)SSC(=S)N2C[C@@H](C)O[C@@H](C)C2)C[C@H](C)O1
[1]
  inhibition: Active
[2]
  inhibition: Active
[3]
  inhibition: Active
[4]
  inhibition: Active
[5]
  IC50: 0.032 µM

## OCC1CN(C(=S)SSC(=S)N2CCCOC(CO)C2)CCCO1 (stereo not given)
[5]
  IC50: 2.85 µM

## CN(C)C(=O)OCC1CN(C(=S)SSC(=S)N2CCOC(COC(=O)N(C)C)C2)CCO1 (stereo not given)
[5]
  IC50: 1.7 µM

## CN(C)C(=O)OCC1CN(C(=S)SSC(=S)N2CCCOC(COC(=O)N(C)C)C2)CCCO1 (stereo not given)
[5]
  IC50: 1.46 µM

## CCOC(=O)C1CCc2nc(S)sc2C1 (stereo not given)
[6]
  inhibition: inactive

## S=C(SSC(=S)N1CCOC(COc2ccccc2)C1)N1CCOC(COc2ccccc2)C1 (stereo not given)
[2]
  inhibition: Active
[5]
  IC50: 0.247 µM

## CCOC[C@@H]1COCCN1C(=S)SSC(=S)N1CCOC[C@H]1COCC
[1]
  inhibition: Active
[2]
  inhibition: Active
[3]
  inhibition: Active
[4]
  inhibition: Active
[5]
  IC50: 0.072 µM

## O=C(O)C1CN(C(=S)SSC(=S)N2CCOC(C(=O)O)C2)CCO1 (stereo not given)
[5]
  IC50: 0.126 µM

## S=C(SSC(=S)N1CCOc2ccccc21)N1CCOc2ccccc21
[7]
  Ratio: 0.06 ×10³ /M/s
[5]
  IC50: 1.05 µM
  Ki: 3.35 µM
[8]
  Kinact: 2.1 ×10⁻⁴ /s

## O=C(O)C1CCc2nc(SSc3nc4c(s3)CC(C(=O)O)CC4)sc2C1 (stereo not given)
[5]
  IC50: 0.13 µM

## c1cnc2sc(SSc3nc4cccnc4s3)nc2c1
[5]
  IC50: 0.476 µM

## S=C(SSC(=S)N1CCCOCC1)N1CCCOCC1
[1]
  inhibition: Active
[9]
  inhibition: inactive
L02
  IC50: > 10 µM
[10]
  inhibition: Dose-dependent effect
[2]
  inhibition: Active
[3]
  inhibition: Active
A549 [11]
  inhibition in vivo at 80 mg/kg: 47.8%
[12]
  Ki: 1.28 µM
A549 [13]
  IC50: 0.225 µM
[14]
  inhibition: Dose-dependent effect
[15]
  inhibition: Dose-dependent effect
[4]
  inhibition: Active
[16]
  inhibition: Dose-dependent effect
[17]
  IC50: > 10 µM
Mus musculus
  Activity: Non-Toxic
A549 [18]
  Activity: Active
[19]
  Ki: 7.76 µM
[20]
  inhibition: inactive
A549 [21]
  inhibition in vivo at 40 mg/kg: 26.2%
[22]
  IC50: 0.057 µM
[5]
  IC50: 0.026 µM
  Ki: 0.109 µM

## CC(=O)OCC1CN(C(=S)SSC(=S)N2CCOC(COC(C)=O)C2)CCO1 (stereo not given)
[1]
  inhibition: Active
[2]
  inhibition: Active
[3]
  inhibition: Active
[4]
  inhibition: Active
[5]
  IC50: 0.113 µM

## Cc1ccc(OCC2CN(C(=S)SSC(=S)N3CCOC(COc4ccc(C)cc4)C3)CCO2)cc1 (stereo not given)
[5]
  IC50: 2.41 µM

## C1CCc2sc(SSc3nc4c(s3)CCCC4)nc2C1
[5]
  IC50: 0.09 µM

## OCCOCC1CN(C(=S)SSC(=S)N2CCCOC(COCCO)C2)CCCO1 (stereo not given)
[5]
  IC50: 6.83 µM

## COC[C@H]1COCCN1C(=S)SSC(=S)N1CCOC[C@@H]1COC
[5]
  IC50: 0.03 µM
  Ki: 0.12 µM

## CC1CCc2nc(SSc3nc4c(s3)CC(C)CC4)sc2C1 (stereo not given)
[5]
  IC50: 0.119 µM

## CC1(C)CCc2nc(SSc3nc4c(s3)CC(C)(C)CC4)sc2C1
[5]
  IC50: 0.218 µM

## O=[N+]([O-])c1ccc2nc(SSc3nc4ccc([N+](=O)[O-])cc4s3)sc2c1
[5]
  IC50: 0.161 µM

## O=C(O)C(Cl)Cl [DICHLOROACETIC ACID]
[9]
  inhibition: Active
L02
  IC50: > 15000 µM
[23]
  IC50: 727 µM
[12]
  IC50: 504 µM
[17]
  IC50: 13800 µM
[19]
  IC50: 5560 µM
[22]
  IC50: 11100 µM

## OC1CN(C(=S)SSC(=S)N2CC(O)C2)C1
[7]
  Ratio: 0.07 ×10³ /M/s
[5]
  IC50: 0.395 µM
  Ki: 0.872 µM
[8]
  Kinact: 4.74 ×10⁻⁴ /s

## S=C(SSC(=S)N1CCCOC(COc2ccccc2)C1)N1CCCOC(COc2ccccc2)C1 (stereo not given)
[5]
  IC50: 0.609 µM
